Holding throughout (assay): Enzyme Inhibition Assay
Holding throughout (settings): pH 8; 25 °C

Experiment [1] concerns the target Inosine-5'-monophosphate dehydrogenase 1 (Homo sapiens, UniProt P20839). The source says: (§1) Enzyme inhibition assay using recombinant human IMPDH1 and IMPDH2 and C.parvum were expressed in guaB strains of escherichia coli.
Experiment [2] has as its target Inosine-5'-monophosphate dehydrogenase 2 (Homo sapiens, UniProt P12268).
Excerpt: as §1

The target of experiment [3] is T1, Inosine-5-monophosphate dehydrogenase (Cryptosporidium parvum, UniProt Q5CPK7).
T1 sequence (Q5CPK7 whole entry): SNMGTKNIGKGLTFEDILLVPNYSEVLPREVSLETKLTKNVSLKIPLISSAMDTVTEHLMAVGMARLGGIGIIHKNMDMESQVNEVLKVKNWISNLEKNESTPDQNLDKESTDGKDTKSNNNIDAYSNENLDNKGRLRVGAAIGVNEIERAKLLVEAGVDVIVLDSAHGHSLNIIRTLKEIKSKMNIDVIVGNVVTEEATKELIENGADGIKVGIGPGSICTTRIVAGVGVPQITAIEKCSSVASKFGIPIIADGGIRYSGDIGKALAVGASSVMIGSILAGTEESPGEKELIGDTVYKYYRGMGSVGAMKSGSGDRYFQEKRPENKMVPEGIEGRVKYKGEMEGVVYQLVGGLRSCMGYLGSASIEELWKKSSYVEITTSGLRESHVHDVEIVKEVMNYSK
Excerpt: as §1

The structures appear in SMILES notation.

The IC50 is the concentration needed to halve the response being measured.

Chain of Inosine-5'-monophosphate dehydrogenase 1 (P20839 whole entry): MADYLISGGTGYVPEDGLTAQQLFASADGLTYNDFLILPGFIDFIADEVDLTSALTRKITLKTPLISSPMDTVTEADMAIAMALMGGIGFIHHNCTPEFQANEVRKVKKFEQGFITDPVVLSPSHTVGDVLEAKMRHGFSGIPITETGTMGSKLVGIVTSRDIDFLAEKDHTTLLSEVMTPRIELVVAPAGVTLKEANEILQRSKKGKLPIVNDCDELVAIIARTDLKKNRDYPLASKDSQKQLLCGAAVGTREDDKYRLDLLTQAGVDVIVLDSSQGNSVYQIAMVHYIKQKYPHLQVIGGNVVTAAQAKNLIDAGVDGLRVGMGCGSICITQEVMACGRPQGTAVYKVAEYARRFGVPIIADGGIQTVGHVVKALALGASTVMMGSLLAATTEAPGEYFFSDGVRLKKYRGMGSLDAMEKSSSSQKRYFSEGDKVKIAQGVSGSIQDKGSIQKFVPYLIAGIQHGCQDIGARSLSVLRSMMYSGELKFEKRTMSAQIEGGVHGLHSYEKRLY

`COC(=O)c1c(C)c(=O)[nH]c2ccccc12` [methyl 3-methyl-2-oxo-1,2-dihydroquinoline-4-carboxylate, Compound E]: the 50% inhibitory concentration (IC50) in experiment [1] is more than 25 µM; in experiment [2] it was more than 25 µM; in experiment [3], 1.6 µM.
`CC(Oc1ccccc1)C(=O)Nc1ccc(Cl)cc1` (configuration not stated): the IC50 in experiment [1] is more than 50 µM; in experiment [2], more than 50 µM; in experiment [3] it was 3.3 µM.
`O=C(N/C=N\c1cccnc1)C1COc2ccccc2O1` (configuration not stated) [N-[(Z)-N-(pyridin-3-yl)carboximidoyl]-2,3-dihydro-1,4-benzodioxine-2-carboxamide, K]: the IC50 in experiment [1] is more than 500 µM; in experiment [2], more than 500 µM; in experiment [3] it was 19 µM.
`O=c1[nH]c2ccc(Oc3ccc4[nH]c(=O)c(=O)[nH]c4c3)cc2[nH]c1=O` [Tetrahydroquinoxalin analog, J]: the IC50 is more than 50 µM in experiment [1], more than 50 µM in experiment [2] and 5.9 µM in experiment [3].

The values above are taken from BindingDB's records for doi:10.1016/j.chembiol.2007.12.010 (Brandeis University, 2008).
